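These data come from cells grown in 96-well plates and exposed to compound for 48 hours at five concentrations. At the GI50, growth is halved.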 Activity calls are given as the source filed them. Cut-off read from the data, not from the text of the source: active = GI50 up to about 1.1 µM and inactive = higher.
Assays:
Test in all cases: NCI tumour cell line growth inhibition, 48 h
786-0 = system: 786-0
DMS-114 = system: DMS-114
DMS-273 = system: DMS-273
HOP-62 = system: HOP-62
HOP-92 = system: HOP-92
LOX IMVI = system: LOX IMVI
LXFL 529 = system: LXFL 529
M19-MEL = system: M19-MEL
RPMI-8226 = system: RPMI-8226
SK-OV-3 = system: SK-OV-3
SNB-19 = system: SNB-19
TK-10 = system: TK-10
XF498 = system: XF498
SN12C = system: SN12C

Measured: GI50

O=C(O)C1CC2C=CCC(C2)C1 (stereo not drawn)
inactive: 786-0 > 100 µM | DMS-114 > 100 µM | DMS-273 > 100 µM | HOP-62 > 100 µM | HOP-92 > 100 µM | LOX IMVI > 100 µM | LXFL 529 > 100 µM | M19-MEL > 100 µM | RPMI-8226 > 100 µM | SK-OV-3 > 100 µM | SNB-19 > 100 µM | TK-10 > 100 µM | XF498 > 100 µM

CC1SC2=NC3=C(c4ccccc4C3=O)C(c3ccccc3Cl)N2C1=O (stereo not drawn)
inactive: 786-0 > 100 µM | DMS-114 > 100 µM | DMS-273 > 100 µM | HOP-62 > 100 µM | HOP-92 78.2 µM | LOX IMVI > 100 µM | LXFL 529 > 100 µM | M19-MEL > 100 µM | RPMI-8226 58.5 µM | SK-OV-3 > 100 µM | SN12C > 100 µM | SNB-19 > 100 µM | TK-10 > 100 µM | XF498 > 100 µM

COc1ccc(Nc2cnc3cc(N)ccc3n2)cc1OC
inactive: DMS-114 47 µM | DMS-273 56.2 µM | HOP-62 61.1 µM | HOP-92 7.62 µM | LOX IMVI 37.1 µM | LXFL 529 13.2 µM | M19-MEL > 100 µM | RPMI-8226 23.9 µM | SK-OV-3 > 100 µM | SN12C 39.3 µM | TK-10 > 100 µM | XF498 54.6 µM

COc1cc(C(=O)CC2OC(=O)C(Cl)=C2Cl)ccc1Cl (stereo not drawn)
inactive: DMS-114 > 100 µM | DMS-273 > 100 µM | HOP-62 > 100 µM | HOP-92 > 100 µM | LOX IMVI > 100 µM | LXFL 529 > 100 µM | M19-MEL > 100 µM | RPMI-8226 > 100 µM | SK-OV-3 > 100 µM | SN12C > 100 µM | SNB-19 > 100 µM | TK-10 > 100 µM | XF498 > 100 µM

N#CC(C#N)=C1CCC2C(=C(C#N)C#N)CCC12 (stereo not drawn)
inactive: 786-0 > 100 µM | DMS-114 > 100 µM | DMS-273 > 100 µM | HOP-62 > 100 µM | HOP-92 > 100 µM | LOX IMVI > 100 µM | LXFL 529 > 100 µM | M19-MEL > 100 µM | RPMI-8226 > 100 µM | SK-OV-3 > 100 µM | SN12C > 100 µM | SNB-19 > 100 µM | TK-10 > 100 µM | XF498 > 100 µM

CC(C)OP(=O)(OC(C)C)/C(F)=N/Nc1ccc([N+](=O)[O-])cc1
inactive: DMS-114 > 100 µM | DMS-273 > 100 µM | HOP-62 > 100 µM | HOP-92 > 100 µM | LXFL 529 > 100 µM | M19-MEL > 100 µM | RPMI-8226 > 100 µM | SK-OV-3 > 100 µM | SN12C > 100 µM | SNB-19 > 100 µM | TK-10 > 100 µM | XF498 > 100 µM

Reference: ChEMBL document CHEMBL1201862, “PubChem BioAssay data set” (2004)
